Data published in patent US9278915B2, “Agonists of GPR40” (CONNEXIOS LIFE SCIENCES PVT LTD, priority 2010, dated 2016).

Molecular target: T1, hGPR40 (Homo sapiens, UniProt O14842)
T1 construct: expressed in transfected cells
Experiment: Calcium flux assay to detect GPR40 activation
Type: cell-based
Details: CHO-K cells stably expressing hGPR40; Fluo-4 NW; read for 4 min at 5 s intervals
Procedure: Biological Activity Calium Flux Assay to Detect GPR40 Activation: CHO-K cells stably expressing hGPR40 were selected in a media containing Neomycin/G418. The cells were plated at a concentration of 20,000 cells per well in black 96-well clear bottom tissue culture treated plates. The cells were cultured for 24 h at 37° C. in a humidified 5% CO2 air environment to allow for protein expression. The next day, after removal of media from wells, Fluo-4 NW (Invitrogen) is added at 100 ul/well and the cells were incubated for 30 min at 37° C. and for a further 30 min at RT. All test compounds were diluted to appropriate concentrations in HEPES buffer. Compounds were added to the cells and the wells were read in the BioTEK synergy reader and readings were taken for 4 min with an interval of 5 s.

T1 sequence (O14842 whole entry): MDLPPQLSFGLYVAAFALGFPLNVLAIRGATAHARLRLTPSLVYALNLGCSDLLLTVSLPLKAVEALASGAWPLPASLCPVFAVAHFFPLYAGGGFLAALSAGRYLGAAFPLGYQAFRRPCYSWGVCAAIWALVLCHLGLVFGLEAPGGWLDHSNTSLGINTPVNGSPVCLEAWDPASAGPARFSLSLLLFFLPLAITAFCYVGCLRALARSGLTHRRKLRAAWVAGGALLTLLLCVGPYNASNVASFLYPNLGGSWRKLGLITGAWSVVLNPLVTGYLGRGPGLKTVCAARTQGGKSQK

Structure (SMILES) | EC50 [nM]
CO/N=C(\COc1ccc(COc2ccc(C(C#N)CC(=O)O)cc2)cc1)c1ccccc1 (single isomer, unassigned; (-)) [Compound 75, (−)-3-Cyano-3-{4-[(4-{[(2Z)-2-(methoxyimino)-2-phenylethyl]oxy}benzyl)oxy]phenyl}propanoic acid] | < 10
CO/N=C(\COc1ccc(COc2ccc(CCC(=O)O)cn2)cc1)c1ccccc1 [Compound 114, 3-{6-[(4-{[(2Z)-2-(Methoxyimino)-2-phenylethyl]oxy}benzyl)oxy]pyridin-3-yl}propanoic acid] | > 100
CO/N=C(\COc1ccc(COc2ccc(C(C#N)CC(=O)O)cc2)cc1)c1ccccc1 (stereo not shown) [Compound 16, 3-Cyano-3-{4-[(4-{[(2Z)-2-(methoxyimino)-2-phenylethyl]oxy}benzyl)oxy]phenyl}propanoic acid] | 10 to 100
CO/N=C(\COc1ccc(COc2ccc(C3CC3C(=O)O)cc2)cc1)c1ccc(C#N)cc1 (stereo not shown) [Compound 51, Sodium 2-{4-[(4-{[(2Z)-2-(4-cyanophenyl)-2-(methoxyimino)ethyl]oxy}benzyl)oxy]phenyl}cyclopropanecarboxylate] | < 10
CO/N=C(\COc1ccc(COc2ccc(C(CC(=O)O)C3CC3)cc2)cc1)c1ccccc1 (stereo not shown) [Compound 87, 3-Cyclopropyl-3-{4-[(4-{[(2Z)-2-(methoxyimino)-2-phenylethyl]oxy}benzyl)oxy]phenyl}propanoic acid] | > 100
CO/N=C(\COc1ccc(COc2ccc(C(C#N)CC(=O)O)cc2)cc1)c1ccccc1 (stereo not shown) [Compound 31, Potassium 3-cyano-3-{4-[(4-{[(2Z)-2-(methoxyimino)-2-phenylethyl]oxy}benzyl)oxy]phenyl}propanoate] | < 10
CO/N=C(\COc1ccc(CNc2ccc(CCC(=O)O)cc2)cc1)c1ccccc1 [Compound 4, 3-{4-[(4-{[(2Z)-2-(Methoxyimino)-2-phenylethyl]oxy}benzyl)amino]phenyl}propanoic acid] | 10 to 100
O=C(O)CCc1ccc(NCc2cccc(/C(=N\OCC(F)(F)F)c3ccccc3)c2)cc1 [Compound 9, 3-{4-[(3-{(E,Z)-Phenyl[(2,2,2-trifluoroethoxy)imino]methyl}benzyl)amino]phenyl}propanoic acid] | > 100
CO/N=C(\COc1ccc(COc2ccc([C@H]3C[C@H]3C(=O)O)cc2)cc1)c1ccc(C#N)cc1 [Compound 63, (1R,2S)-2-{4-[(4-{[(2Z)-2-(4-Cyanophenyl)-2-(methoxyimino)ethyl]oxy}benzyl)oxy]phenyl}cyclopropanecarboxylic acid] | > 100
CO/N=C(\COc1ccc(COc2ccc(CCC(=O)O)c(CC#N)c2)cc1)c1ccccc1 [Compound 44, 3-{2-(Cyanomethyl)-4-[(4-{[(2Z)-2-(methoxyimino)-2-phenylethyl]oxy}benzyl)oxy]phenyl}propanoic acid] | > 100
CO/N=C(\COc1cccc(COc2ccc(CC(C#N)C(=O)O)cc2)c1)c1ccccc1 (stereo not shown) [Compound 8, 2-Cyano-3-{4-[(3-{[(2E,2Z)-2-(methoxyimino)-2-phenylethyl]oxy}benzyl)oxy]phenyl}propanoic acid] | > 100
CC(C)O/N=C(/c1ccccc1)c1cccc(CNc2ccc(CCC(=O)O)cc2)c1 [Compound 10, 3-{4-[(3-{(E,Z)-Phenyl[(propan-2-yloxy)imino]methyl}benzyl)amino]phenyl}propanoic acid] | > 100
CO/N=C(\COc1ccc(COc2ccc(CCC(=O)O)c(-c3cc(C)on3)c2)cc1)c1ccccc1 [Compound 65, 3-{4-[(4-{[(2Z)-2-(Methoxyimino)-2-phenylethyl]oxy}benzyl)oxy]-2-(5-methyl-1,2-oxazol-3-yl)phenyl}propanoic acid] | > 100
CO/N=C(\COc1ccc(COc2ccc(CCC(=O)O)c(F)c2)cc1)c1ccc(OC)cc1 [Compound 40, 3-{2-Fluoro-4-[(4-{[(2Z)-2-(methoxyimino)-2-(4-methoxyphenyl)ethyl]oxy}benzyl)oxy]phenyl}propanoic acid] | < 10
CO/N=C(\COc1ccc(COc2ccc(C(C#N)CC(=O)O)cc2)cc1)c1ccccc1 (stereo not shown) [Compound 18, Sodium 3-cyano-3-{4-[(4-{[(2Z)-2-(methoxyimino)-2-phenylethyl]oxy}benzyl)oxy]phenyl}propanoate] | < 10

The next lines start with the values.

EC50 [nM] | Structure (SMILES)
10 to 100 | CO/N=C(\COc1ccc(COc2ccc(C(C#N)CC(=O)O)cc2)cc1)c1ccc2c(c1)CCO2 (stereo not shown) [Compound 102, 3-Cyano-3-{4-[(4-{[(2Z)-2-(2,3-dihydro-1-benzofuran-5-yl)-2-(methoxyimino)ethyl]oxy}benzyl)oxy]phenyl}propanoic acid]
10 to 100 | N#CC(CC(=O)O)c1ccc(OCc2ccc(OC/C(=N\OC3CCCCC3)c3ccccc3)cc2)cc1 (stereo not shown) [Compound 111, 3-Cyano-3-(4-{[4-({(2Z)-2-[(cyclohexyloxy)imino]-2-phenylethyl}oxy)benzyl]oxy}phenyl)propanoic acid]
10 to 100 | CO/N=C(/c1ccccc1)c1cccc(CNc2ccc(CCC(=O)O)cc2)c1 [Compound 2, 3-[4-({3-[(E,Z)-(Methoxyimino)(phenyl)methyl]benzyl}amino)phenyl]propanoic acid]
10 to 100 | CO/N=C(/COc1ccc(COc2ccc(C(C#N)CC(=O)O)cc2)cc1)c1ccccc1 (single isomer, unassigned) [Compound 100, 3-Cyano-3-{4-[(4-{[(2E)-2-(methoxyimino)-2-phenylethyl]oxy}benzyl)oxy]phenyl}propanoic acid]
< 10 | CON=C(COc1ccc(COc2ccc(C(C#N)CC(=O)O)cc2)cc1)c1ccc(C#N)cc1 (mixture of isomers) [Compound 49, Sodium 3-cyano-3-{4-[(4-{[(2E,2Z)-2-(4-cyanophenyl)-2-(methoxyimino)ethyl]oxy}benzyl)oxy]phenyl}propanoate]
< 10 | CO/N=C(\COc1ccc(COc2ccc(CCC(=O)O)c(F)c2)cc1)c1ccccc1 [Compound 36, 3-{2-Fluoro-4-[(4-{[(2Z)-2-(methoxyimino)-2-phenylethyl]oxy}benzyl)oxy]phenyl}propanoic acid]
10 to 100 | CO/N=C(/COc1ccc(COc2ccc(C(CC(=O)O)c3ccon3)cc2)cc1)c1cccc(C)c1 (racemic) [Compound 24, 3-{4-[(4-{[(2E,2Z)-2-(Methoxyimino)-2-(3-methylphenyl)ethyl]oxy}benzyl)oxy]phenyl}-3-(1,2-oxazol-3-yl)propanoic acid]
10 to 100 | CO/N=C(\COc1ccc(CNc2ccc(CCC(=O)O)cc2)cc1)c1ccccc1C [Compound 6, 3-{4-[(4-{[(2Z)-2-(Methoxyimino)-2-(2-methylphenyl)ethyl]oxy}benzyl)amino]phenyl}propanoic acid]
> 100 | CO/N=C(\COc1ccc(COc2ccc(C(CC(=O)O)c3c(C)noc3C)cc2)cc1)c1ccccc1 (stereo not shown) [Compound 67, 3-(3,5-Dimethyl-1,2-oxazol-4-yl)-3-{4-[(4-{[(2E,2Z)-2-(methoxyimino)-2-phenylethyl]oxy}benzyl)oxy]phenyl}propanoic acid]
> 100 | CCOC(=O)CCc1ccc(OCc2ccc(OC/C(=N\OC)c3ccccc3)cc2)cc1OCC(=O)O [Compound 90, {2-(3-Ethoxy-3-oxopropyl)-5-[(4-{[(2E,2Z)-2-(methoxyimino)-2-phenylethyl]oxy}benzyl)oxy]phenoxy}acetic acid]
